Measurements taken from the supplement of paper PMC10307832.

Tests used:
Test in all cases: relative viability (nuclei count vs DMSO), 5 days (fraction); higher = more cells survive
[1] = compound: NS(=O)(=O)OC[C@@H]1C[C@@H](n2ccc3c(N[C@H]4CCc5ccccc54)ncnc32)C[C@@H]1O [MLN4924] + Nc1ncn([C@H]2C[C@H](O)[C@@H](CO)O2)c(=O)n1 [Decitabine] (partner 2 µM)
In short: (§1)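 Lung cancer cell lines in 1536-well plates were dosed by pin tool the day after seeding, either with one drug alone or with a fixed anchor-drug dose plus five library-drug doses (not always all listed) in √10 steps. After 5 days, cells were fixed and their nuclei stained in one step (final 0.05% Triton X-100, 1% formaldehyde, 1 ug/ml Hoechst), then counted on 4× images. Relative viability is the nuclei count in treated wells divided by that in vehicle wells. Values are medians of duplicate plates.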

[2] = compound: C1CC(C1)(C(=O)O)C(=O)O.[NH2-].[NH2-].[Pt+2] [Carboplatin] + CS(=O)(=O)CCNCc1ccc(-c2ccc3ncnc(Nc4ccc(OCc5cccc(F)c5)c(Cl)c4)c3c2)o1 [Lapatinib] (partner 2 µM)
In short: as §1

[3] = compound: C1CC(C1)(C(=O)O)C(=O)O.[NH2-].[NH2-].[Pt+2] [Carboplatin] + CS(=O)(=O)N1CCN(Cc2cc3nc(-c4cccc5[nH]ncc45)nc(N4CCOCC4)c3s2)CC1 [Pictilisib] (partner 1 µM)
In short: as §1

[4] = compound: NS(=O)(=O)OC[C@@H]1C[C@@H](n2ccc3c(N[C@H]4CCc5ccccc54)ncnc32)C[C@@H]1O [MLN4924] + CS(=O)(=O)N1CCN(Cc2cc3nc(-c4cccc5[nH]ncc45)nc(N4CCOCC4)c3s2)CC1 [Pictilisib] (partner 1 µM)
In short: as §1

Cell Line	relative viability ([1]; first compound 0.04 µM)	relative viability ([1]; first compound 0.1265 µM)	relative viability ([1]; first compound 0.4 µM)	relative viability ([1]; first compound 1.265 µM)	relative viability ([1]; first compound 4 µM)	relative viability ([2]; first compound 0.08 µM)	relative viability ([2]; first compound 0.253 µM)	relative viability ([2]; first compound 0.8 µM)	relative viability ([2]; first compound 2.53 µM)	relative viability ([2]; first compound 8 µM)	relative viability ([3]; first compound 0.08 µM)	relative viability ([3]; first compound 0.253 µM)	relative viability ([3]; first compound 0.8 µM)	relative viability ([3]; first compound 2.53 µM)	relative viability ([3]; first compound 8 µM)	relative viability ([4]; first compound 0.04 µM)	relative viability ([4]; first compound 0.1265 µM)	relative viability ([4]; first compound 0.4 µM)	relative viability ([4]; first compound 1.265 µM)	relative viability ([4]; first compound 4 µM)
201T	0.88	0.653	0.582	0.368	0.293	1.06	1.08	1.11	1.08	0.99	0.69	0.667	0.736	0.684	0.634	0.783	0.837	0.833	0.425	0.366
A549	0.213	0.189	0.112	0.0579	0.0418	1.12	0.938	0.911	0.928	0.437	0.579	0.51	0.527	0.459	0.125	0.5	0.474	0.246	0.0557	0.0729
A-427	0.445	0.421	0.309	0.282	0.265	1.1	1.05	1.04	1.04	0.985	0.773	0.768	0.629	0.694	0.732	0.66	0.406	0.284	0.179	0.222
ABC-1	1.12	1.33	0.929	0.28	0.402	1.12	1.55	0.848	0.902	1.17	0.749	0.783	0.782	0.68	0.535	0.677	0.809	0.372	0.188	0.374
BEN	0.517	0.436	0.383	0.288	0.243	0.797	0.87	0.749	0.654	0.59	0.69	0.587	0.515	0.525	0.609	0.566	0.398	0.254	0.163	0.155
CAL-12T	–	–	–	–	–	0.754	0.624	0.749	0.755	0.639	0.484	0.398	0.345	0.376	0.486	–	0.41	0.299	0.237	0.156
COR-L23	0.465	0.431	0.321	0.156	0.138	0.946	0.919	0.67	0.728	0.419	0.933	0.782	0.735	0.512	0.253	0.711	0.71	0.159	0.104	0.0964
COR-L 105	0.658	0.523	0.397	0.263	0.328	0.354	0.349	0.381	0.332	0.382	0.403	0.391	0.422	0.427	0.34	0.427	0.455	0.399	0.268	0.274
Calu-6	–	–	–	–	–	1.12	1.06	1.03	0.87	0.456	0.914	0.906	0.823	0.739	0.486	1.08	0.707	0.238	0.108	0.135
ChaGo-K-1	0.409	0.276	0.297	0.2	0.184	–	–	–	–	–	1.01	0.713	0.615	0.463	0.376	0.515	0.434	0.369	0.258	0.272
EBC-1	–	–	–	–	–	0.201	0.234	0.201	0.208	0.204	0.392	0.344	0.363	0.365	0.358	0.488	0.372	0.245	0.11	0.162
EKVX	0.35	0.369	0.346	0.22	0.191	0.21	0.2	0.217	0.191	0.218	0.452	0.422	0.413	0.381	0.387	0.533	0.513	0.363	0.135	0.135
EMC-BAC-2	0.829	0.663	0.428	0.219	0.264	0.883	0.886	0.924	0.837	0.88	0.48	0.538	0.476	0.56	0.466	0.242	0.569	0.213	0.155	0.192
EPLC-272H	0.325	0.284	0.0744	0.108	0.106	1.01	1.14	0.961	0.981	0.901	0.373	0.305	0.313	0.322	0.349	0.119	0.246	0.0811	0.135	0.135
H3255	0.469	0.392	0.338	0.228	0.218	0.276	0.248	0.269	0.257	0.236	0.54	0.504	0.375	0.407	0.425	0.453	0.382	0.317	0.203	0.217
HARA	0.496	0.379	0.379	0.203	0.156	0.816	0.842	0.841	0.654	0.695	0.424	0.341	0.387	0.382	0.391	0.552	0.388	0.184	0.0759	0.0734
HCC-15	0.322	0.217	0.17	0.0917	0.111	0.919	0.854	0.875	0.814	0.66	0.781	0.715	0.749	0.702	0.498	0.475	0.343	0.172	0.0896	0.107
